Consider 1 substance from patent publication US8475772B2, “Peptide-based oral care surface reagents for personal care” (E I du Pont de Nemours and Company, priority 2003, dated 2013).

“And” between values parts separate entries of the source, which are not always exact repeats. Identical values can stand only once. Where no end group is shown, it is not given here.

The nature of test [1]: Fiber friction test, high load, against chromed steel wire. Set-up: species or system human. The settings on record: normal force 0.74 g. The procedure: (§1) IL) in distilled water. The aqueous solution was mixed at 7000 rpm for 4 min using a Silverson […] High Shear Laboratory Mixer (Silverson Machines, Inc., East Longmeadow, Mass.) with a general purpose disintegrating head and a 0.95 cm mini-micro tubular frame. A 0.5% solution of Dow Corning® 929 Cationic Emulsion (Dow Corning Corp., Midland, Mich.), a commercial conditioning agent, in distilled water was prepared using identical mixing conditions. European dark brown hair swatches (International Hair Importers and Products) were cleaned before testing by immersing in isopropanol for 30 min, then washing 10 times with distilled water. Single hair fibers from these swatches were sent to Textile Research Institute (TRI), Princeton, N.J., for friction testing. […] Frictional force measurements of treated hair fibers were measured by the Interfiber friction test using a single-fiber friction apparatus, as described by […] et al. (J. Appl. Polymer Sci., 85:394-414 (2002)). Hair fibers were evaluated at high normal forces (high load) (0.74 g) against a chromed steel wire, crosshead speed of 1 mm/min, using an Instron Tensile Testing machine. Low normal forces (low load) (8.5 mg) were measured against another single hair fiber using the TRI/ScanTM Surface Force Analyzer (Textile Research Institute). […]

A short description of test [2]: Interfiber friction test, low load, against another single hair fiber. The conditions noted are these: mean of fibers; normal force 8.5 mg. Further details: species or system human. As to the method: as §1

Consider “Conditioner: SEQ ID NO:46 covalently linked to behenyl alcohol; tested at 0.25% with 1.5% lecithin in water (RTNAADHPAAVT; also: covalently linked to behenyl alcohol, site not given here)”, for which the “Friction Force Ff, High Load, Mean” value in test [1] (mean of fibers) is 0.055 g. Moreover, the “Friction Force Ff, High Load” value in test [1] (single fibers 1-4) is 0.041 g and 0.057 g and 0.070 g and 0.051 g. In test [2], the “Friction Force Ff, Low Load, Mean” value is 0.304 mg.
